In brackets after ≈: the same amount, converted by molar mass. Like-named read-outs stand apart in the source and are kept apart here.

These results are taken from patent US20150246888A1, “ENOYL REDUCTASE INHIBITORS WITH ANTIBACTERIAL ACTIVITY” (priority 2012, published 2015).

The subject of assay [1] is F. tularensis, strain Utah 112. In words: microbe, parasite or virus in culture. The assay is classed as cell-based. Particulars: Francisella tularensis, UTAH112.
The test system of assay [2] is E. coli (BW251113 strain). In words: microbe, parasite or virus in culture. The assay is classed as cell-based. The following applies: Escherichia coli.
Assay [3] deals with MRSA (ATCC number 43300). In words: microbe, parasite or virus in culture. Particulars: Staphylococcus aureus. It is filed as cell-based, methicillin-resistant Staphylococcus aureus.
Assay [4] deals with S. aureus (ATCC number 29213). In words: microbe, parasite or virus in culture. The assay is classed as cell-based. The following applies: Staphylococcus aureus.
Assay [5] deals with FtuFabI (Francisella tularensis subsp. tularensis, UniProt Q5NGQ3). In words: biochemical. Also noted: species or system F. tularensis subsp. tularensis Schu4.
Assay [6] concerns E. coli TolC-, an efflux defective mutant. In words: microbe, parasite or virus in culture. The assay is classed as cell-based. The following applies: Escherichia coli.
In assay [7] the test system is B. anthracis, ΔANR strain. In words: microbe, parasite or virus in culture. The following applies: Bacillus anthracis. It is filed as cell-based.
Setting [8] is: read-out: IC50, Inhibition of FabI.

Chain of FtuFabI (Q5NGQ3 1-260 limits assumed): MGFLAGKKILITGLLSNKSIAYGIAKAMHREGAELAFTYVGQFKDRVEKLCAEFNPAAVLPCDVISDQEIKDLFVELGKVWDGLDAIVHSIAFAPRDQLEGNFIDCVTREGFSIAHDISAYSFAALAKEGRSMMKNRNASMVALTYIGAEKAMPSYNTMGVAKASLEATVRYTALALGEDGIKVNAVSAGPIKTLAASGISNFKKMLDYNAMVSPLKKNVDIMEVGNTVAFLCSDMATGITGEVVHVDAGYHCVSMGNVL

Take `Cc1cc2ncn(C(C)c3ccc(Cl)c(Cl)c3)c2cc1C` (stereo not shown) [Compound 2, 1-(1-(3,4-dichlorophenyl)ethyl)-5,6-dimethyl-1H-benzo[d]imidazole]: the MIC is more than 12.5 µg/mL in assay [1]; more than 12.5 µg/mL in assay [2]; 12.5 µg/mL (≈ 39.2 µM) in assay [3]; 12.5 µg/mL (≈ 39.2 µM) in assay [4]; 6.3 µg/mL (≈ 19.7 µM) in assay [6]; 12.5 µg/mL (≈ 39.2 µM) in assay [7]. Further, the IC50 in assay [5] (setting [8]) was determined as 370 nM. This compound also had an MBC in assay [6] of 12.5 µg/mL (≈ 39.2 µM).
On to `CC(c1ccc(Cl)c(Cl)c1)n1cnc2cc3c(cc21)CC(C)(C)C3` (stereo not shown) [Compound 5, 1-(1-(3,4-dichlorophenyl)ethyl)-6,6-dimethyl-1,5,6,7-tetrahydroindeno[5,6-d]imidazole], for which the MIC in assay [1] was more than 12.5 µg/mL; in assay [2], more than 12.5 µg/mL; in assay [3], 4.7 µg/mL (≈ 13.1 µM); in assay [4] it was 4.7 µg/mL (≈ 13.1 µM); in assay [6], more than 12.5 µg/mL; in assay [7], more than 12.5 µg/mL. Further, the MBC in assay [3] and in assay [4] was more than 12.5 µg/mL in each case. Besides, the IC50 in assay [5] (setting [8]) is 240 nM.
Turning to `CC(c1ccc(Cl)c(Cl)c1)n1cnc2cc3c(cc21)COC3` (stereo not shown) [Compound 6, 1-(1-(3,4-dichlorophenyl)ethyl)-5,7-dihydro-1H-isobenzofuro[5,6-d]imidazole], the MIC in assay [1], in assay [2], in assay [3], in assay [4], in assay [6] and in assay [7] was more than 12.5 µg/mL throughout. Moreover, the IC50 in assay [5] (setting [8]) was 890 nM.
Take `COc1ccc(Cn2cnc3cc(C)c(C)cc32)cc1C` [Compound 7, 1-(4-methoxy-3-methylbenzyl)-5,6-dimethyl-1H-benzo[d]imidazole]: the MIC was more than 12.5 µg/mL in assay [1]; more than 12.5 µg/mL in assay [2]; more than 12.5 µg/mL in assay [3]; more than 12.5 µg/mL in assay [4]; 12.5 µg/mL (≈ 44.6 µM) in assay [6]; more than 12.5 µg/mL in assay [7]. The midpoint of inhibition in assay [5], the IC50, lay at 250 nM.
`COc1ccc(Cn2cnc3cc4c(cc32)CCC4)cc1C` [Compound 8, 1-(4-methoxy-3-methylbenzyl)-1,5,6,7-tetrahydroindeno[5,6-d]imidazole] gave an MBC in assay [1] of 12.5 µg/mL (≈ 42.8 µM). The MIC in assay [1] was 5.5 µg/mL (≈ 18.8 µM); in assay [2] it was more than 12.5 µg/mL; in assay [3] it was more than 12.5 µg/mL; in assay [4], more than 12.5 µg/mL; in assay [6], 12.5 µg/mL (≈ 42.8 µM); in assay [7] it was more than 12.5 µg/mL. For the same compound, the IC50 in assay [5] (setting [8]) amounted to 5 nM.
As for `COc1ccc(Cn2cnc3cc4c(cc32)CC(C)(C)C4)cc1C` [Compound 11, 1-(4-methoxy-3-methylbenzyl)-6,6-dimethyl-1,5,6,7-tetrahydroindeno[5,6-d]imidazole], the MIC in assay [1], in assay [2], in assay [3], in assay [4], in assay [6] and in assay [7] was more than 12.5 µg/mL in each case. In assay [5], the half-inhibitory concentration (IC50) was 14 nM.
On to `COc1ccc(Cn2cnc3cc4c(cc32)CC(C)(C)C4)cc1OC` [Compound 12, 1-(3,4-dimethoxybenzyl)-6,6-dimethyl-1,5,6,7-tetrahydroindeno[5,6-d]imidazole], for which the MIC in assay [1], in assay [2], in assay [3], in assay [4], in assay [6] and in assay [7] was more than 12.5 µg/mL throughout. Besides, the IC50 in assay [5] turned out to be 71 nM.
For `CC1(C)Cc2cc3ncn(Cc4ccc5c(c4)OCO5)c3cc2C1` [Compound 13, 1-(benzo[d][1,3]dioxol-5-ylmethyl)-6,6-dimethyl-1,5,6,7-tetrahydroindeno[5,6-d]imidazole], the MIC was more than 12.5 µg/mL in assay [1]; more than 12.5 µg/mL in assay [2]; more than 12.5 µg/mL in assay [3]; more than 12.5 µg/mL in assay [4]; 12.5 µg/mL (≈ 39 µM) in assay [6]; more than 12.5 µg/mL in assay [7]. In addition, the IC50 in assay [5] was 29 nM.
Regarding `CC1(C)Cc2cc3ncn(Cc4ccc5c(c4)CC[C@@H]5O)c3cc2C1` [Compound 15, (S)-5-((6,6-dimethyl-6,7-dihydroindeno[5,6-d]imidazol-1(5H)-yl)methyl)-2,3-dihydro-1H-inden-1-ol], the MIC in assay [1], in assay [2], in assay [3], in assay [4], in assay [6] and in assay [7] was more than 12.5 µg/mL throughout. The compound further yielded an IC50 in assay [5] of 41 nM.
In assay [5], `COc1ccc(Cn2cnc3cc(C)c(C)cc32)cc1` [Compound 16, 1-(4-methoxybenzyl)-5,6-dimethyl-1H-benzo[d]imidazole] yielded a half-inhibitory concentration (IC50) of 4700 nM.
On the same count and under the same terms, under `Cc1cc2ncn(Cc3ccc4c(c3)OCO4)c2cc1C` [Compound 17, 1-(benzo[d][1,3]dioxol-5-ylmethyl)-5,6-dimethyl-1H-benzo[d]imidazole] stands 4400 nM; under `Cc1cc2ncn(Cc3ccc(O)c(C)c3)c2cc1C` [Compound 18, 4-((5,6-dimethyl-1H-benzo[d]imidazol-1-yl)methyl)-2-methylphenol], 1300 nM.
For `c1cc2c(cc1Cn1cnc3cc4c(cc31)CCC4)OCO2` [Compound 19, 1-(benzo[d][1,3]dioxol-5-ylmethyl)-1,5,6,7-tetrahydroindeno[5,6-d]imidazole], the results for the MBC in assay [1], in assay [3] and in assay [4] were 37.5 µg/mL (≈ 128 µM), more than 25 µg/mL and more than 25 µg/mL, respectively. In addition, the MIC was 6.3 µg/mL (≈ 21.6 µM) in assay [1]; more than 12.5 µg/mL in assay [2]; 10.9 µg/mL (≈ 37.3 µM) in assay [3]; 9.4 µg/mL (≈ 32.2 µM) in assay [4]; more than 12.5 µg/mL in assay [6]; more than 12.5 µg/mL in assay [7]. The same compound displayed an IC50 in assay [5] of 2200 nM.
With `COc1ccc(Cn2cnc3cc4c(cc32)CCC4)cc1` [Compound 20, 1-(4-methoxybenzyl)-1,5,6,7-tetrahydroindeno[5,6-d]imidazole], the MBC in assay [1] came out at 37.5 µg/mL (≈ 135 µM). In addition, the MIC was 5.5 µg/mL (≈ 19.8 µM) in assay [1]; more than 12.5 µg/mL in assay [2]; more than 12.5 µg/mL in assay [3]; more than 12.5 µg/mL in assay [4]; more than 12.5 µg/mL in assay [6]; more than 12.5 µg/mL in assay [7]. 840 nM corresponded to half-maximal inhibition in assay [5] (IC50).
`Nc1ccc(Cn2cnc3cc4c(cc32)CCC4)cc1` [Compound 21, 4-((6,7-dihydroindeno[5,6-d]imidazol-1(5H)-yl)methyl)aniline]: the MIC in assay [1], in assay [2], in assay [3], in assay [4], in assay [6] and in assay [7] was more than 12.5 µg/mL in each case. In assay [5], this compound registered an IC50 of 12000 nM.
Consider `COc1ccc(Cn2cnc3cc(C)c(C)cc32)cc1OC` [Compound 22, 1-(3,4-dimethoxybenzyl)-5,6-dimethyl-1H-benzo[d]imidazole], for which the IC50 in assay [5] turned out to be 7600 nM.
Still for that read-out and setting: under `COc1ccc(Cn2cnc3cc4c(cc32)CCC4)cc1OC` [Compound 23, 1-(3,4-dimethoxybenzyl)-1,5,6,7-tetrahydroindeno[5,6-d]imidazole] stands 5900 nM.
For `COc1ccc(Cn2cnc3cc4c(cc32)CCCC4)cc1` [Compound 24, 1-(4-methoxybenzyl)-5,6,7,8-tetrahydro-1H-naphtho[2,3-d]imidazole], the MBC in assay [1] is 18.8 µg/mL (≈ 64.3 µM); in assay [6], more than 25 µg/mL. Also, the MIC was 4.7 µg/mL (≈ 16.1 µM) in assay [1]; more than 12.5 µg/mL in assay [2]; more than 12.5 µg/mL in assay [3]; more than 12.5 µg/mL in assay [4]; 12.5 µg/mL (≈ 42.8 µM) in assay [6]; more than 12.5 µg/mL in assay [7]. For the same compound, the 50% inhibitory concentration (IC50) in assay [5] is 330 nM.
